# Source: patent US6376518B1, “Acyl derivatives of 4-demethylpenclomedine, use thereof and preparation thereof” (Southern Research Institute, priority 1999, dated 2002)
# Read-outs that look alike come from different tables or passages of the source.
# How the values were obtained:
# P388/CPA leukemia = assay: Antitumor activity against IP-implanted P388/CPA leukemia in mice; type: in vivo, murine; details: P388/CPA, Q1D × 5 (1)
# P388/L-PAM leukemia = details: for MEDIAN DAY OF DEATH: dying mice only
# P388/BCNU leukemia = assay: Antitumor activity against IP-implanted P388/BCNU leukemia in mice; details: P388/BCNU, Q1D × 5 (1); for MEDIAN DAY OF DEATH: dying mice only
# human MX-1 mammary tumor [1] = assay: In vivo antitumor activity vs i.c.-implanted human MX-1 mammary tumor xenograft in athymic mice; details: ic MX-1; for Median % ILS (dying mice only) / Tumor-Free-Surv/Total: Days 1-5
# P388/0 leukemia = details: P388/0; for MEDIAN DAY OF DEATH: dying mice only
# human MX-1 mammary tumor [2] = assay: In vivo antitumor activity vs s.c.-implanted human MX-1 mammary tumor xenograft in athymic mice; details: sc MX-1
# [3] = P388/L-PAM, IP 60.0 mg/kg/dose, Q1D × 5 (1)
# [4] = P388/L-PAM, IP 90.0 mg/kg/dose, Q1D × 5 (1)
# [5] = P388/L-PAM, IP 135.0 mg/kg/dose, Q1D × 5 (1)
# [6] = optimal doses (LD10 or less), schedule QD1-5, administered LP.
# [7] = IP 60.0 mg/kg/dose, Q1D × 5 (1)
# [8] = IP 90.0 mg/kg/dose, Q1D × 5 (1)
# [9] = IP 135.0 mg/kg/dose, Q1D × 5 (1)
# [10] = P388/L-PAM, IP 15.0 mg/kg/dose, Q1D × 1 (1)
# [11] = P388/L-PAM, IP 20.0 mg/kg/dose, Q1D × 1 (1)
# [12] = IP 20.0 mg/kg/dose, Q1D × 1 (1)
smiles,measurement,setting,value
"COc1nc(C(Cl)(Cl)Cl)c(Cl)c(O)c1Cl [DM-PEN, 3,5-dichloro-2-methoxy-4-hydroxy-6-(trichloromethyl)pyridine]",50-DAY SURV/TOTAL,P388/CPA leukemia; IP 60.0 mg/kg/dose,0/6
same,% ILS,P388/CPA leukemia; IP 60.0 mg/kg/dose,+22%
same,APPROX. NET LOG10 CHANGE IN TUMOR BURDEN AT END OF Rx,P388/CPA leukemia; IP 60.0 mg/kg/dose,+0.9
same,50-DAY SURV/TOTAL,P388/CPA leukemia; IP 90.0 mg/kg/dose,0/6
same,% ILS,P388/CPA leukemia; IP 90.0 mg/kg/dose,+54%
same,APPROX. NET LOG10 CHANGE IN TUMOR BURDEN AT END OF Rx,P388/CPA leukemia; IP 90.0 mg/kg/dose,−1.1
same,MEDIAN DAY OF DEATH,"P388/CPA leukemia; IP 90.0 mg/kg/dose, dying mice only",17.0
same,50-DAY SURV/TOTAL,P388/CPA leukemia; IP 135.0 mg/kg/dose,0/6
same,% ILS,P388/CPA leukemia; IP 135.0 mg/kg/dose,+31%
same,APPROX. NET LOG10 CHANGE IN TUMOR BURDEN AT END OF Rx,P388/CPA leukemia; IP 135.0 mg/kg/dose,+0.3
same,50-DAY SURV/TOTAL,P388/L-PAM leukemia; [3],0/6
same,% ILS,P388/L-PAM leukemia; [3],−4%
same,APPROX. NET LOG10 CHANGE IN TUMOR BURDEN AT END OF Rx,P388/L-PAM leukemia; [3],+1.6
same,50-DAY SURV/TOTAL,P388/L-PAM leukemia; [4],0/6
same,% ILS,P388/L-PAM leukemia; [4],−8%
same,APPROX. NET LOG10 CHANGE IN TUMOR BURDEN AT END OF Rx,P388/L-PAM leukemia; [4],+1.6
same,MEDIAN DAY OF DEATH,P388/L-PAM leukemia; [4],13.0
same,50-DAY SURV/TOTAL,P388/L-PAM leukemia; [5],0/6
same,% ILS,P388/L-PAM leukemia; [5],−4%
same,APPROX. NET LOG10 CHANGE IN TUMOR BURDEN AT END OF Rx,P388/L-PAM leukemia; [5],+1.6
same,Toxicity / lethality level at the dosage (LD),P388/L-PAM leukemia; [5],LD33
same,activity in the P388/L-PAM tumor model (in words),"P388/L-PAM leukemia; mouse, in vivo",none of the three showed significant activity
same,50-DAY SURV/TOTAL,P388/BCNU leukemia; IP 60.0 mg/kg/dose,0/6
same,% ILS,P388/BCNU leukemia; IP 60.0 mg/kg/dose,+33%
same,APPROX. NET LOG10 CHANGE IN TUMOR BURDEN AT END OF Rx,P388/BCNU leukemia; IP 60.0 mg/kg/dose,+0.8
same,MEDIAN DAY OF DEATH,P388/BCNU leukemia; IP 60.0 mg/kg/dose,12.0
same,50-DAY SURV/TOTAL,P388/BCNU leukemia; IP 90.0 mg/kg/dose,0/6
same,% ILS,P388/BCNU leukemia; IP 90.0 mg/kg/dose,+55%
same,APPROX. NET LOG10 CHANGE IN TUMOR BURDEN AT END OF Rx,P388/BCNU leukemia; IP 90.0 mg/kg/dose,−0.8
same,MEDIAN DAY OF DEATH,P388/BCNU leukemia; IP 90.0 mg/kg/dose,14.0
same,50-DAY SURV/TOTAL,P388/BCNU leukemia; IP 135.0 mg/kg/dose,0/6
same,% ILS,P388/BCNU leukemia; IP 135.0 mg/kg/dose,+88%
same,APPROX. NET LOG10 CHANGE IN TUMOR BURDEN AT END OF Rx,P388/BCNU leukemia; IP 135.0 mg/kg/dose,−3.1
same,Toxicity / lethality level at the dosage (LD),P388/BCNU leukemia; IP 135.0 mg/kg/dose,LD17
same,MEDIAN DAY OF DEATH,P388/BCNU leukemia; IP 135.0 mg/kg/dose,17.0
same,Median % ILS (based on dying mice only),human MX-1 mammary tumor [1]; [6],60%
same,Survivors,human MX-1 mammary tumor [1]; [6],0/5
same,50-DAY SURV/TOTAL,P388/0 leukemia; [7],0/6
same,% ILS,P388/0 leukemia; [7],+45%
same,APPROX. NET LOG10 CHANGE IN TUMOR BURDEN AT END OF Rx,P388/0 leukemia; [7],−0.8
same,MEDIAN DAY OF DEATH,P388/0 leukemia; [7],16.0
same,50-DAY SURV/TOTAL,P388/0 leukemia; [8],0/6
same,% ILS,P388/0 leukemia; [8],+72%
same,APPROX. NET LOG10 CHANGE IN TUMOR BURDEN AT END OF Rx,P388/0 leukemia; [8],−3.1
same,MEDIAN DAY OF DEATH,P388/0 leukemia; [8],19.0
same,50-DAY SURV/TOTAL,P388/0 leukemia; [9],0/6
same,% ILS,P388/0 leukemia; [9],−23%
same,Toxicity / lethality level at the dosage (LD),P388/0 leukemia; [9],TOXIC
same,MEDIAN DAY OF DEATH,P388/0 leukemia; [9],8.5
"N[C@@H](Cc1ccc(N(CCCl)CCCl)cc1)C(=O)O [L-PAM (melphalan), melphalan]",50-DAY SURV/TOTAL,P388/L-PAM leukemia; [10],0/6
same,% ILS,P388/L-PAM leukemia; [10],+14%
same,APPROX. NET LOG10 CHANGE IN TUMOR BURDEN AT END OF Rx,P388/L-PAM leukemia; [10],−1.8
same,MEDIAN DAY OF DEATH,P388/L-PAM leukemia; [10],18.0
same,50-DAY SURV/TOTAL,P388/L-PAM leukemia; [11],0/6
same,% ILS,P388/L-PAM leukemia; [11],+14%
same,APPROX. NET LOG10 CHANGE IN TUMOR BURDEN AT END OF Rx,P388/L-PAM leukemia; [11],−1.8
same,MEDIAN DAY OF DEATH,P388/L-PAM leukemia; [11],18.0
same,50-DAY SURV/TOTAL,"P388/0 leukemia; IP 15.0 mg/kg/dose, Q1D × 1 (1)",6/6
same,50-DAY SURV/TOTAL,P388/0 leukemia; [12],6/6
same,% ILS,P388/0 leukemia; [12],+209%
same,APPROX. NET LOG10 CHANGE IN TUMOR BURDEN AT END OF Rx,P388/0 leukemia; [12],ca −8.8
same,MEDIAN DAY OF DEATH,P388/0 leukemia; [12],34.0
C=CC(=O)Oc1c(Cl)c(OC)nc(C(Cl)(Cl)Cl)c1Cl [DM-AC-PEN],T-C,"human MX-1 mammary tumor [2]; IP 60 mg/kg/dose, Days 12-16",30.0 days
same,Tumor-Free-Surv/Total,"human MX-1 mammary tumor [2]; IP 60 mg/kg/dose, Days 12-16",1/5
same,Median % ILS (dying mice only),human MX-1 mammary tumor [1]; IP 60 mg/kg/dose,+55%
COC(=O)CCC(=O)Oc1c(Cl)c(OC)nc(C(Cl)(Cl)Cl)c1Cl [DM-CMP-PEN],Tumor-Free-Surv/Total,"human MX-1 mammary tumor [2]; IP 135 mg/kg/dose, Days 11-15",3/5
same,Tumor-Free-Surv/Total,"human MX-1 mammary tumor [2]; oral (gavage) 135 mg/kg/dose, Days 13-17",2/5
same,Median % ILS (dying mice only),human MX-1 mammary tumor [1]; IP 90 mg/kg/dose,+87%
same,Median % ILS (dying mice only),human MX-1 mammary tumor [1]; oral (gavage) 90 mg/kg/dose,+76%
COc1nc(C(Cl)(Cl)Cl)c(Cl)c(OC(=O)Cc2cccs2)c1Cl [DM-TA-PEN],Tumor-Free-Surv/Total,"human MX-1 mammary tumor [2]; IP 90 mg/kg/dose, Days 12-16",3/5
same,Median % ILS (dying mice only),human MX-1 mammary tumor [1]; IP 90 mg/kg/dose,+75%
COc1nc(C(Cl)(Cl)Cl)c(Cl)c(OC(=O)c2ccncc2)c1Cl [DM-IN-PEN],Dose (mg/kg) with observed lethality level,"human MX-1 mammary tumor [2]; IP 90 mg/kg/dose, Days 12-16",90 (LD20)
same,Tumor-Free-Surv/Total,"human MX-1 mammary tumor [2]; IP 90 mg/kg/dose, Days 12-16",3/5
COc1nc(C(Cl)(Cl)Cl)c(Cl)c(OC(=O)c2ccc([N+](=O)[O-])o2)c1Cl [DM-NF-PEN],Tumor-Free-Surv/Total,"human MX-1 mammary tumor [2]; IP 90 mg/kg/dose, Days 12-16",4/5
same,Median % ILS (dying mice only),human MX-1 mammary tumor [1]; IP 135 mg/kg/dose,+59%
COc1nc(C(Cl)(Cl)Cl)c(Cl)c(OC(=O)c2ccc([N+](=O)[O-])cc2)c1Cl [DM-NB-PEN],Tumor-Free-Surv/Total,"human MX-1 mammary tumor [2]; IP 135 mg/kg/dose, Days 12-16",5/5
COc1nc(C(Cl)(Cl)Cl)c(Cl)c(OC(=O)c2c(Cl)cc(Cl)cc2Cl)c1Cl [DM-TCB-PEN],Median % ILS (dying mice only),human MX-1 mammary tumor [1]; IP 135 mg/kg/dose,+92%
same,Tumor-Free-Surv/Total,human MX-1 mammary tumor [1]; IP 135 mg/kg/dose,1/5
COc1nc(C(Cl)(Cl)Cl)c(Cl)c(OC(=O)COC(C)=O)c1Cl [DM-AA-PEN],Median % ILS (dying mice only),human MX-1 mammary tumor [1]; IP 135 mg/kg/dose,+67%
same,Tumor-Free-Surv/Total,human MX-1 mammary tumor [1]; IP 135 mg/kg/dose,0/5
same,Tumor-Free-Surv/Total,human MX-1 mammary tumor [1]; oral (gavage) 135 mg/kg/dose,2/5
